We go through two compounds from US20260327204A1, “DEGRADERS OF CYCLIN-DEPENDENT KINASE 12/13, COMPOSITIONS, AND USES THEREOF” (ZHEJIANG UNIVERSITY, priority 2023, published 2026).

As usually defined, the half-life is the time needed for the level to fall by half in the phase considered.

Molecules are shown by their SMILES. Read-outs that look alike come from different tables or passages of the source.

Data set [1] has as its system tumor cells MDA-MB-231, MV4-11, and KASUMI-1 and normal cells L-02 and HK-2. Kind of data set: Survival of tumor and normal cells (CCK8 / SRB). Format: cell-based. The conditions noted are these: 72 h, concentration gradient, FIG. 10. Here is the method:
The proliferation inhibition of compounds on leukemia cell lines MV4-11 and KASUMI-1 was determined using the CCK8 assay, while the inhibition on solid tumor cell lines MDA-MB-231 was determined using the Sulforhodamine B (SRB) assay.
CCK8 Assay: First, MV4-11 and KASUMI-1 cells were seeded in a 96-well plate at a density of 5,000 cells per well. Then, a concentration gradient (0.03 μM-10 μM) of the compounds was administered for 72 h, with DMSO solvent serving as the negative control. At the end of the treatment, 10 μL of CCK8 reagent was added to each well. The plate was incubated for 4 hours at 37 °C in the dark. After mixing, the absorbance value was measured at 450 nm.
SRB Assay: First, MDA-MB-231, L-02, and HK-2 cells were seeded in a 96-well plate at a density of 3,000 cells per well. After 8-12 h of cell adhesion, a concentration gradient (62.5 nM-10 μM) of the compounds was administered for 72 h, with DMSO solvent serving as the negative control. At the end of the treatment, the cells were washed once with 70 μL of PBS, then fixed with 70 μL of 10% trichloroacetic acid at 4 °C for 1 h. After rinsing with tap water and drying in an oven, 70 μL of SRB staining solution was added to each well for 20 min at room temperature. […] Finally, 150 μL of 10 mM Tris-base dissolving solution was added, and the plate was shaken for 15 min before the absorbance value was measured at 540 nm.

A short description of data set [2]: Liver microsome stability, human. The class given is in vitro ADME. To be noted: liver microsomes. The procedure: (§1) • Compounds: Ketanserin, Formula 18, Formula 45 • Liver microsomes: Human liver microsomes (purchased from BioreclamationIVT); Dog, mouse, rat, and monkey liver microsomes (purchased from Xenotech)
(§2) Preparation of 500 μM compound solution: Add 5 μL of 10 mM compound solution and 95 μL of DMSO to an EP tube.
(§3) Preparation of solution containing 0.75 mg/mL liver microsomes and 1.5 μM compound: Add 1.5 μL of the 500 μM compound solution, 18.75 μL of the 20 mg/mL liver microsome solution, and 479.75 μL of PBS to an EP tube.
(§4) Preparation of 6 mM NADPH solution: Dissolve 5 mg of NADPH in 1 mL of PBS solution.
(§5) Add 30 μL of the solution containing 0.75 mg/mL liver microsomes and a concentration gradient of the compound to a 96-well plate. Add 15 μL of the 6 mM NADPH solution and 150 μL of a 1:1 acetonitrile:methanol solution containing an internal standard (IS). Vortex and centrifuge at 6,000 rpm for 10 min. 80 μL of the supernatant from each concentration sample is transferred to a 96-well plate containing 140 μL of pure water for LC/MS detection (injection volume of […]). […]
(§6) 80 μL of the supernatant from each well is transferred to a 96-well plate containing 140 μL of pure water for LC/MS detection (injection volume of […]). The compound concentration value is determined by comparing the corresponding mass spectrometry peak area with the standard curve. […]

The nature of data set [3]: Liver microsome stability, rat. The class given is in vitro ADME. To be noted: liver microsomes. The procedure: as §1, §2, §3, §4, §5, §6
(Microsomes from liver hold many membrane-bound enzymes, among them those of drug oxidation.)

Data set [4] is described as follows: Liver microsome stability, dog. The class given is in vitro ADME. To be noted: liver microsomes. The procedure: as §1, §2, §3, §4, §5, §6
Data set [5] is described as follows: Liver microsome stability, monkey. The class given is in vitro ADME. The conditions noted are these: liver microsomes. The procedure:
as §1, §2, §3, §4, §5, §6

The target in a further data set is CDK12 (Homo sapiens, UniProt Q9NYV4). Briefly: Western blot degradation of CDK12 (Example 2). Format: cell-based. Also noted: degradation of CDK12/13 protein in leukemia cells KASUMI-1, MV4-11, and Jurkat; endogenous in cells. Summed up:
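Leukemia lines KASUMI-1, MV4-11, Jurkat, plus MDA-MB-231 for a concentration series, treated at 0.01–3 μM for 3–48 h at 37 °C against DMSO control. Lysates in 4% SDS; CDK12/13 band intensity normalized to β-Actin or GAPDH to give degradation rate.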

The target in data set [6] is T1, CDK13 (Homo sapiens, UniProt Q14004). Briefly: Western blot degradation of CDK13 (Example 2). The class given is cell-based. More on the design: degradation of CDK12/13 protein in leukemia cells KASUMI-1, MV4-11, and Jurkat; endogenous in cells. (In general: Immunoblotting shows a protein as a band on a membrane.)
T1 sequence (Q14004 whole entry): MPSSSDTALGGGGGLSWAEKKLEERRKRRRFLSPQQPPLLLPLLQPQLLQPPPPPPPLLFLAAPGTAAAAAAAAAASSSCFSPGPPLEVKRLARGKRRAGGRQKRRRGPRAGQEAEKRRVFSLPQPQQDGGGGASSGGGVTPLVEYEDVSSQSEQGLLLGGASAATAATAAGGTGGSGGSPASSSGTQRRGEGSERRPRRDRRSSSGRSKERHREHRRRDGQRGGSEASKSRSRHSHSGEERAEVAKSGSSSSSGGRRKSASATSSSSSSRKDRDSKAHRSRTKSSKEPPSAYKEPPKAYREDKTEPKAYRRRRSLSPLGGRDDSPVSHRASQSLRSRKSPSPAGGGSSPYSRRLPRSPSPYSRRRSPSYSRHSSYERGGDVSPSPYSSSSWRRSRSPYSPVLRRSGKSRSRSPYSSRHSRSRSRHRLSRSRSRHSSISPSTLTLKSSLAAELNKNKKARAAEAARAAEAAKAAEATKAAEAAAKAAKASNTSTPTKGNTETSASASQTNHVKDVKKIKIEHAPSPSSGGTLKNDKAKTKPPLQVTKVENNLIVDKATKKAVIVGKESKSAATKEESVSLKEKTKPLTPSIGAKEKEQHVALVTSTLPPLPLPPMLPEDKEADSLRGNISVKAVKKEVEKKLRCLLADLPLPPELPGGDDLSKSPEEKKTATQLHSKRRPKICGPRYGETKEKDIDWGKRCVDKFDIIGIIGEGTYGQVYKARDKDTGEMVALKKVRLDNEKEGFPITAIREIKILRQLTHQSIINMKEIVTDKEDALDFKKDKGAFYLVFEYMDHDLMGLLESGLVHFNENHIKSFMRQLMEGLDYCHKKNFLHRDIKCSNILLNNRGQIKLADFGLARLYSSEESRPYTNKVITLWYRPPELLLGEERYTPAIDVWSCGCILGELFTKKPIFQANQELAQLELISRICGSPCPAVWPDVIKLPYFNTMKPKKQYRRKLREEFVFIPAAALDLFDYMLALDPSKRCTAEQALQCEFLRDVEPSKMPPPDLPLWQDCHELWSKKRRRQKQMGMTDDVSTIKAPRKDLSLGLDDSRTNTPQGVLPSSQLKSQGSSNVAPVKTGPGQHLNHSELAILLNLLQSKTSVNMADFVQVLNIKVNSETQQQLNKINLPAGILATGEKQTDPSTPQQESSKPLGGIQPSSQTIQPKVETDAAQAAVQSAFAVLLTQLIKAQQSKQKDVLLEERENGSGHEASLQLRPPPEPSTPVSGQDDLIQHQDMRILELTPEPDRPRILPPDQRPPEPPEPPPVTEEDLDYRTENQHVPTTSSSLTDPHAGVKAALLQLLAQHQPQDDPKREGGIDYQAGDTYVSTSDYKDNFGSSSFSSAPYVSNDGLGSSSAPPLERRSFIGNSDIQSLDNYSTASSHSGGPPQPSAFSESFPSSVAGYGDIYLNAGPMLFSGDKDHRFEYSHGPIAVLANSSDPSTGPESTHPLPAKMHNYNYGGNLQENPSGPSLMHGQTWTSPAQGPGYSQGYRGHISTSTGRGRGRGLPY
T1 sequence (O75909 whole entry partner): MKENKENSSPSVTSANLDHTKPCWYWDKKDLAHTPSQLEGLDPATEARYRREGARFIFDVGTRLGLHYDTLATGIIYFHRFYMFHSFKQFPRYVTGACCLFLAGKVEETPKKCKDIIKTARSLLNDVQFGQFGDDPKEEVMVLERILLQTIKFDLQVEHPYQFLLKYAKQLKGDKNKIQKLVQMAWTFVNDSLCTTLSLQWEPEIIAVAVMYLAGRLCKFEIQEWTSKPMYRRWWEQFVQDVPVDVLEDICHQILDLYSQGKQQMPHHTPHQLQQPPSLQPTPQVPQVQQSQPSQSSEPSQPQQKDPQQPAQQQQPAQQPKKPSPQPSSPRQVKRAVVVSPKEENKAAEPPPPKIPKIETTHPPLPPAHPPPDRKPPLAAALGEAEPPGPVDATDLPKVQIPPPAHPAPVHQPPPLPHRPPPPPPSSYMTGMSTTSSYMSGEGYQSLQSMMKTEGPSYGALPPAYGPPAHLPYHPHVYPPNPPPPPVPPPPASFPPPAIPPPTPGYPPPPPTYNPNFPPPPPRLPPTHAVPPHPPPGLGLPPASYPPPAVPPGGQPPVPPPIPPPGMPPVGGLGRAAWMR
Data set [7] deals with T1, CDK13. Kind of data set: Western blot degradation of CDK13 (Example 2). The conditions noted are these: HCT116, colorectal cancer cells. Format: cell-based. More on the design: degradation of CDK12/13 protein in leukemia cells KASUMI-1, MV4-11, and Jurkat; endogenous in cells.

CDK12, sequence (Q9NYV4 whole entry): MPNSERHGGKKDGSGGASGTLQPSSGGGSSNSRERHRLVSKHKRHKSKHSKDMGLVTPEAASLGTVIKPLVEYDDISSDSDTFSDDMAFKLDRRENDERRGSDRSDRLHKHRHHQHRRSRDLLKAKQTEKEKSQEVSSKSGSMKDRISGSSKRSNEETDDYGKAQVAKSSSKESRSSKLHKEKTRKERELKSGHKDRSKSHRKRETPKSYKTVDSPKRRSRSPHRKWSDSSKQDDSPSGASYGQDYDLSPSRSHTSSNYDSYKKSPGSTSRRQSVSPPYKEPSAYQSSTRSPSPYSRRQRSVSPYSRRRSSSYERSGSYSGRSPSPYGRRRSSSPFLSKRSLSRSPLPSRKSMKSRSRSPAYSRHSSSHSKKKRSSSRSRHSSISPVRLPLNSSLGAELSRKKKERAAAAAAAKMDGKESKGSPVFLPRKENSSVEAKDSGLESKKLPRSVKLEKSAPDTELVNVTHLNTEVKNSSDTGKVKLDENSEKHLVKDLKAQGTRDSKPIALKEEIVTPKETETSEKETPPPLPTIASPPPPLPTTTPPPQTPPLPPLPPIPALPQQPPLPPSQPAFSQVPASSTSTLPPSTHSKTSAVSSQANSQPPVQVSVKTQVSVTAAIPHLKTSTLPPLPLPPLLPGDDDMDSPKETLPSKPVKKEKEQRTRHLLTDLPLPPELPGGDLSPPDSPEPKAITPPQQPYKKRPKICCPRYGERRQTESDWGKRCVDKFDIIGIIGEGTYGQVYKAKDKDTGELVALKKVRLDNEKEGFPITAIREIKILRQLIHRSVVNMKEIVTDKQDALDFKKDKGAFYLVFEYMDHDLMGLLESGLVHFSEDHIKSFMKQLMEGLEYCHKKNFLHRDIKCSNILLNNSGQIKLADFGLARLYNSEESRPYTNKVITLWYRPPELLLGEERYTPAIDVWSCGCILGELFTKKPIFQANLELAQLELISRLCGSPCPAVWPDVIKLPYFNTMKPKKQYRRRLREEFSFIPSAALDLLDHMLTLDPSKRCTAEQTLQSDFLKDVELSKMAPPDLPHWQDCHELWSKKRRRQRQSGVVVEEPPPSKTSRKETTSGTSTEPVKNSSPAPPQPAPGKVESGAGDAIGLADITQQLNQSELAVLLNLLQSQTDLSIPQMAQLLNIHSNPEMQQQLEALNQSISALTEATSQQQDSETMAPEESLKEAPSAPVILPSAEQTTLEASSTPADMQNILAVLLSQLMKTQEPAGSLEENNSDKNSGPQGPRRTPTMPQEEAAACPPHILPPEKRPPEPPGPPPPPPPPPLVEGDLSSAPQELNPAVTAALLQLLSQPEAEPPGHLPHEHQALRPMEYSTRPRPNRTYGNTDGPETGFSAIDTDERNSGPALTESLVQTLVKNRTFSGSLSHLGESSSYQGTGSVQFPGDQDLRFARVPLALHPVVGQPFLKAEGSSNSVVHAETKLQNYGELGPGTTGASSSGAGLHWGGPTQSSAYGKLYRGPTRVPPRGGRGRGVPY
CDK12, sequence (O75909 whole entry partner): as the sequence (O75909 whole entry partner) above

In the case of `CN(C)C/C=C/C(=O)Nc1ccc(C(=O)N2CCC[C@@H](Nc3ncc(Cl)c(-c4c[nH]c5ccccc45)n3)C2)cc1` [THZ-531], the “proliferation inhibitory activity on normal and tumor cells” value in data set [1] is “indiscriminate proliferation inhibitory activity on both normal and tumor cells”.
On to `Cc1ncsc1-c1ccc([C@H](C)NC(=O)[C@@H]2C[C@@H](O)CN2C(=O)[C@@H](NC(=O)CN2CCN(c3ncc(-c4ccc(N(C(=O)NCc5ccccc5)[C@H]5CC[C@H](Nc6ccc(C#N)cn6)CC5)cc4)cn3)CC2)C(C)(C)C)cc1` [Formula 45], for which the half-life in data set [2], in data set [3], in data set [4] and in data set [5] was over 45 min each time. The DC50 on CDK12 (DC50 classes, cell line not given, read-out: CDK12 degradation Activity) was under 100 nM; on CDK12 (HCT116, colorectal cancer cells, read-out: CDK12 DC50), 34 nM; on CDK12 (KASUMI-1, leukemia cells, read-out: CDK12 DC50), 28 nM; on CDK12 (MDA-MB-231, breast cancer cells, read-out: CDK12 DC50), 29 nM; on CDK12 (MV4-11, leukemia cells, read-out: CDK12 DC50), 30 nM; at CDK13 [6] (DC50 classes, cell line not given, read-out: CDK13 degradation Activity) it was under 100 nM. Also, the DC50 was 17 nM at CDK13 [6] (KASUMI-1, leukemia cells, read-out: CDK13 DC50); 18 nM at CDK13 [6] (MDA-MB-231, breast cancer cells, read-out: CDK13 DC50); 21 nM on CDK13 [6] (MV4-11, leukemia cells, read-out: CDK13 DC50); 24 nM on CDK13 [7]. Besides, the “degradation of CDK12” value at CDK12 (FIGS. 2-9) is reported as “has the strongest degradation effect”. For the same compound, the “degradation of CDK13” value on CDK13 [6] (FIGS. 2-9) is listed as “has the strongest degradation effect”.
